Like-named read-outs stand apart in the source and are kept apart here.
Assays:
5-lipoxygenase = molecular target: T1, 5-lipoxygenase (Cavia porcellus, UniProt A0A286X958); assay: 5-Lipoxygenase (5-LO) Assay: 5-HETE formation in supernatant of guinea pig PMNL sonicate; assay type: biochemical
T1 construct: 0.2 ml of the supernatant obtained from the PMNL sonicate; endogenous in cells; host or cells: casein-elicited guinea pig peritoneal polymorphonuclear leukocytes (PMNL), sonicate, 30,000 x g supernatant
T1 sequence (A0A286X958 1-674): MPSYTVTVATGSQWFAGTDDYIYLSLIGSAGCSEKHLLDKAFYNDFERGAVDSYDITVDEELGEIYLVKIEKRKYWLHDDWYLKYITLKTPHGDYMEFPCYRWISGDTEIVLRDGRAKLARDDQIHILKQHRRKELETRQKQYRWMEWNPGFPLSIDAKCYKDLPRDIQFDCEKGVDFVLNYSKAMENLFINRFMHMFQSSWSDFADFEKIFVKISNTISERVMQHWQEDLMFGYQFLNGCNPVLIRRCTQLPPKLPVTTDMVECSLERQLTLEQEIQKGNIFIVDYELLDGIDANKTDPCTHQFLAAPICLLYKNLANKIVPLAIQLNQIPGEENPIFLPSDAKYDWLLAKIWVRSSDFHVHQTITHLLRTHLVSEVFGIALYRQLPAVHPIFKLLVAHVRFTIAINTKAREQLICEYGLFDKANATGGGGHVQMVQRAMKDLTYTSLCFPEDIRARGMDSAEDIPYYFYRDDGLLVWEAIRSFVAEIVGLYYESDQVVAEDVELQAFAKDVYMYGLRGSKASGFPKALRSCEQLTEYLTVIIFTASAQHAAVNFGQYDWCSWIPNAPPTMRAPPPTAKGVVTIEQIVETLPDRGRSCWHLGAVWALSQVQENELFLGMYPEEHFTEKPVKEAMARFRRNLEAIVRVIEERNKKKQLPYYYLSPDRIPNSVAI
Experimental: Ten milliliters of a 2% casein solution is injected intraperitoneally to guinea pigs weighing 250-300 gm. After 16-18 hours, the guinea pigs are killed by suffocation in a carbon dioxide chamber. The peritoneal cavity is infused with 70 ml of saline and 40-50 ml of the fluid is recovered from the cavity. After centrifugation, cell pellets are washed twice in Hank's balanced salt solution (HBSS) without calcium ion.
The cells are then suspended in 5 ml of sodium phosphate buffer, pH 7.1 containing 1 mM, ethylene diamine tetraacetic acid (EDTA), and 0.1% gelatin. About 20-30×10^7 cells are obtained from one guinea pig.
The PMNL suspension is disrupted by five 1/2-second pulse sonication at the setting of 3 in a Branson Sonifier, Model 350, equipped with a microtip. The sonicates are combined and centrifuged at 30,000 ×g for 10 minutes. The supernatant is kept frozen at -70° C. until use.
Enzyme activity is determined by assaying for 5-hydroxy-6,8,11,14-eicosatetraenoic acid (5-HETE) formation by first incubating 0.2 ml of the supernatant obtained from the PMNL sonicate with the test compound, 1 mM CaCl2, 2 mM ATP, and 1 mM GSH for 5 minutes at 37° C. The mixture is treated with […] ^14 C-arachidonic acid and incubated at 37° C. an additional 10 minutes. The enzyme reaction is then stopped by the addition of 10 μl of 1M citric acid and 10 μl of an alcohol solution containing 20 mg/ml each of indomethacin and butylated hydroxyanisole (BHA). The reaction mixture is spotted (50 μl) on a silica gel plate (Baker TLC plate S1250-PA-19C) and subjected to TLC in a solvent system of ethyl acetate/2,2,4-trimethylpentane/glacialacetic acid/H2 O (90:50:20:100).
The radioactivity of the arachidonic acid and its metabolites (5-HETE and LTB4) is visualized from a developed x-ray film which had been exposed to the TLC plate 1-2 days. The amount of 5-HETE formed is quantitated by scraping the silica gel area corresponding to the spot on the x-ray film, and the radioactivity determined in a Isocap/300 liquid scintillation counter (Searle Analytic, Inc.).
The percent inhibition of the formation of 5-HETE is determined for each concentration of compound tested as compared to a control experiment wherein no test compound is added. The concentration and percent values are plotted on semi log paper and the concentration in which formation of 5-HETE is inhibited by 50% (IC50) is determined by interpolation.

[1] = system: polymorphonuclear leukocytes (PMNs); assay: H-PMN Assay: LTB4 content of supernatant of A23187-stimulated human PMNs by radioimmunoassay; assay type: cell-based; conditions: Table II, human PMNs, calcium ionophore A23187, 37° C. for 10 minutes, LTB4 by radioimmunoassay
Experimental: Sodium citrated venous blood is drawn from normal human subjects. After centrifugation at 300 ×g for 15 minutes, the platelet-rich layer of plasma is discarded and an equal volume of Hanks' balanced salt solution (HBSS) is added to the enriched cell fraction. This platelet-depleted cell suspension is then layered on an equal volume of Ficoll-Paque. After centrifugation for 40 minutes at 300 ×g, the bottom layer containing erythrocytes and polymorphonuclear leukocytes (PMNs) is diluted with two volumes of a 0.2% methocel solution. The erythrocytes are sedimented upon standing for 15 minutes, and the supernatant containing the PMNs is aspirated and centrifuged at 300 ×g, for 5 minutes. The cell pellet is then exposed to 0.2% NaCl for 30 seconds to lyse any remaining erythrocytes, and the ionic strength of the suspension is readjusted to 0.9% with NaCl. The PMNs are recovered by centrifugation at 300 ×g for 5 minutes and are suspended in HBSS to a concentration of 2 ×10^6 cells/ml.
The test compounds are dissolved in and diluted with dimethylsulfoxide (DMSO) which also contains 2×10^-6 M of the calcium ionophore, A23187. To 1 ml of the PMN suspension, 10 μl of the DMSO solution is added, and the mixture is incubated at 37° C. for 10 minutes. The PMNs are rapidly pelleted in a microcentrifuge, and the supernatant is kept at -20° C. for future determination of LTB4 content via the radioimmunoassay.

[2] = Table II, guinea pig PMNL sonicate supernatant, 14C-arachidonic acid, 37° C., read-out: 5-LO (concentration in which formation of 5-HETE is inhibited by 50%, IC50)
[3] = second table (Table III), known hydroxamic acid derivatives as comparison, read-out: 5-Lo (IC50)

IC50 (5-lipoxygenase; [2])	IC50 ([1]; Leukocyte, 10 min)	Compound	other results
148 nM	–	2-methylsulfonyl-4-n-hexyl-N-hydroxy-N-methylcinnamamide [Example 22]	IC50 [1]: 204 nM
44 nM	12 nM	C=CCCSc1ccccc1C=CC(=O)N(C)O [Example 2]	–
17 nM	9 nM	CCCCCCSc1ccccc1C=CC(=O)N(C)O [Example 3, 2-n-hexylthio-N-hydroxy-N-methylcinnamamide]	–
72 nM	75 nM	CCCCc1ccccc1C=CC(=O)N(C)O [Example 4, 2-n-butyl-N-hydroxy-N-methylcinnamamide]	–
32 nM	24 nM	CN(O)C(=O)C=Cc1ccccc1SCCCC(F)(F)F [Example 5, 2-[1-(3-trifluoromethylpropyl)thio]-N-hydroxy-N-methylcinnamamide]	–
7 nM	–	CSc1cc(CCCc2ccccc2)ccc1C=CC(=O)N(C)O [Example 6, 2-methylthio-4-(3-phenylpropyl)-N-hydroxy-N-methylcinnamamide]	–
24 nM	–	CCCCSc1cc(C(F)(F)F)ccc1C=CC(=O)N(C)O [Example 7, 2-n-butylthio-4-trifluoromethyl-N-hydroxy-N-methylcinnamamide]	–
23 nM	–	CCCCc1cc(SC)ccc1C=CC(=O)N(C)O [Example 8, 2-n-butyl-4-methylthio-N-hydroxy-N-methylcinnamamide]	–
90 nM	259 nM	CCCCCCc1ccc(S(C)(=O)=O)c(C=CC(=O)N(C)O)c1 [Example 9, 2-methylsulfonyl-5-n-hexyl-N-hydroxy-N-methylcinnamamide]	–
97 nM	118 nM	CCCCCCc1ccc(C=CC(=O)N(C)O)c([S+](C)[O-])c1 (stereo not shown) [Example 10, 2-methylsulfinyl-4-n-hexyl-N-hydroxy-N-methylcinnamamide]	–
96 nM	71 nM	CCCCCCc1ccc([S+](C)[O-])c(C=CC(=O)N(C)O)c1 (stereo not shown) [Example 11, 2-methylsulfinyl-5-n-hexyl-N-hydroxy-N-methylcinnamamide]	–
695 nM	–	CN(O)C(=O)C=Cc1ccc(S(C)(=O)=O)cc1Cc1ccccc1 [Example 12, 2-benzyl-4-methylsulfonyl-N-hydroxy-N-methylcinnamamide]	–
23 nM	–	CSc1ccc(C=CC(=O)N(C)O)c(Cc2ccccc2)c1 [Example 13, 2-benzyl-4-methylthio-N-hydroxy-N-methylcinnamamide]	–
31 nM	–	CSc1ccc(Cc2ccccc2C=CC(=O)N(C)O)cc1 [Example 14, 2-(4-methylthiobenzyl)-N-hydroxy-N-methylcinnamamide]	–
490 nM	–	CN(O)C(=O)C=Cc1ccccc1Cc1ccc(S(C)(=O)=O)cc1 [Example 15, 2-(4-methylsulfonylbenzyl)-N-hydroxy-N-methylcinnamamide]	–
74 nM	–	CN(O)C(=O)C=Cc1ccc(CCCc2ccccc2)cc1S(C)(=O)=O [Example 16, 2-methylsulfonyl-4-(3-phenylpropyl)-N-hydroxy-N-methylcinnamamide]	–
59 nM	150 nM	CCCCCCc1cccc(C=CC(=O)N(C)O)c1SC [Example 17, 2-(methylthio)-3-n-hexyl-N-hydroxy-N-methylcinnamamide]	–

IC50 (5-lipoxygenase; [2])	IC50 ([1]; Leukocyte, 10 min)	Compound	other results
175 nM	–	CN(O)C(=O)C=Cc1ccccc1SC(C)(C)C [Example 18, 2-tert-butylthio-N-hydroxy-N-methyl-cinnamamide]	–
82 nM	25 nM	CCCCCCc1ccc(C=CC(=O)N(C)O)c(SC)c1 [Example 19, 2-methylthio-4-n-hexyl-N-hydroxy-N-methylcinnamamide]	–
459 nM	190 nM	CCCCCCc1cccc(C=CC(=O)N(C)O)c1[S+](C)[O-] (stereo not shown) [Example 20, 2-methylsulfinyl-3-n-hexyl-N-hydroxy-N-methylcinnamamide]	–
166 nM	461 nM	CCCCCCc1cccc(C=CC(=O)N(C)O)c1S(C)(=O)=O [Example 21, 2-methylsulfonyl-3-n-hexyl-N-hydroxy-N-methylcinnamamide]	–
131 nM	–	CN(O)C(=O)C=Cc1ccccc1-c1ccccc1 [Example 24, 2-phenyl-N-hydroxy-N-methylcinnamamide]	–
14 nM	–	CN(O)C(=O)C=Cc1ccccc1SCCc1ccccc1 [Example 25, 2-[1-(2-phenylethyl)thio]-N-hydroxy-N-methyl-cinnamamide]	–
14 nM	–	CN(O)C(=O)C=Cc1ccccc1SCC1CCCCC1 [Example 26, 2-cyclohexylmethylthio-N-hydroxy-N-methylcinnamamide]	–
8 nM	–	CCCCSc1ccccc1C=CC(=O)N(O)C(C)C [Example 28, 2-n-butylthio-N-hydroxy-N-isopropylcinnamamide]	–
8400 nM	–	CN(O)C(=O)C=Cc1ccc(CCCc2ccccc2)cc1[S+](C)[O-] (stereo not shown) [Example 32, 2-methylsulfinyl-4-(3-phenylpropyl)-N-hydroxy-N-methylcinnamamide]	–
1100 nM	–	CCCCS(=O)(=O)c1ccccc1C=CC(=O)N(C)O [Example 34, 2-n-butylsulfonyl-N-hydroxy-N-methylcinnamamide]	–
2440 nM	–	CCCC[S+]([O-])c1ccccc1C=CC(=O)N(C)O (stereo not shown) [Example 36, 2-n-butylsulfinyl-N-hydroxy-N-methylcinnamamide]	–
33 nM	–	CN(O)C(=O)C=Cc1ccccc1SCCCCCCc1ccccc1 [Example 39, 2-[10(6-phenylhexyl)thio]-N-hydroxy-N-methylcinnamamide]	–
160 nM	–	CN(O)C(=O)C=Cc1cc(CCCc2ccccc2)ccc1[S+](C)[O-] (stereo not shown) [Example 41, 2-methylsulfinyl-5-(3-phenylpropyl)-N-hydroxy-N-methylcinnamamide]	–
304 nM	–	CN(O)C(=O)C=Cc1cc(CCCc2ccccc2)ccc1S(C)(=O)=O [Example 42, 2-methylsulfonyl-5-(3-phenylpropyl)-N-hydroxy-N-methylcinnamamide]	–
–	–	CSc1ccccc1C(=O)N(C)O [reference compound]	IC50 (5-lipoxygenase; [3]): 44000 nM
–	–	CSc1ccc(CCCc2ccccc2)cc1C(=O)N(C)O [reference compound]	IC50 (5-lipoxygenase; [3]): 592 nM
–	–	CCc1ccc(CCCc2ccccc2)cc1C(=O)N(C)O [reference compound]	IC50 (5-lipoxygenase; [3]): 550 nM

From patent publication US5028629A, “5-Lipoxygenase inhibitors” (Eli Lilly and Company, priority 1990, dated 1991)
